Measurements reported in ChEMBL document CHEMBL1909046, “DrugMatrix in vitro pharmacology data”.

Columns and labels:
[1] = molecular target: Beta-3 adrenergic receptor (Homo sapiens, UniProt P13945); assay: DRUGMATRIX: Adrenergic beta3 radioligand binding (ligand: [125I] Cyanopindolol); type: cell membranes, Membrane; conditions: hek293; Not Active = under 50% inhibition at 10 µM
[2] = molecular target: 5-hydroxytryptamine receptor 2B (Homo sapiens, UniProt P41595); type: cell membranes, CHO-K1, Membrane; conditions: cho-k1; note: in other assays of this panel Not Active means under 50% inhibition at 10 µM
Thromboxane-A synthase = molecular target: T1, Thromboxane-A synthase (Homo sapiens, UniProt P24557); assay: biochemical; type: tissue-based, Platelet; conditions: platelet;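 note: enzyme inhibition assay with PGH2 supplied as substrate; in other assays of this panel Not Active means under 50% inhibition at 10 µM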
T1 sequence (P24557 whole entry): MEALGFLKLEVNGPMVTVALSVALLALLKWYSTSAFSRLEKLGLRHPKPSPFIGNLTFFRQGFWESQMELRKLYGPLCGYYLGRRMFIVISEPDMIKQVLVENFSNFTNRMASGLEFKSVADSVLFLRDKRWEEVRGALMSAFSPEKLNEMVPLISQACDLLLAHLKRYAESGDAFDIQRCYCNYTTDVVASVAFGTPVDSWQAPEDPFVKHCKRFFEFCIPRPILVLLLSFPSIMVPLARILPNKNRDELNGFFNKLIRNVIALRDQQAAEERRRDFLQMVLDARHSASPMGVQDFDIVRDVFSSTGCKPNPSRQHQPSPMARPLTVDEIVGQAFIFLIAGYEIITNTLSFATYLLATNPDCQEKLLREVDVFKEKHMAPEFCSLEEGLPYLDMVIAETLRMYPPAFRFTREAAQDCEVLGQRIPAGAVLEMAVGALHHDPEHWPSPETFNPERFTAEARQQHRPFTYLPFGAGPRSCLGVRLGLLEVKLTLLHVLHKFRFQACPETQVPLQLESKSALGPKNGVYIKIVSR

Histamine H2 receptor = Histamine H2 receptor (Homo sapiens, UniProt P25021); type: cell membranes, CHO-K1, Membrane; conditions: cho-k1; note: in other assays of this panel Not Active means under 50% inhibition at 10 µM
[3] = molecular target: Mitogen-activated protein kinase 1 (Homo sapiens, UniProt P28482); assay: DRUGMATRIX: Protein Serine/Threonine Kinase, ERK2 enzyme inhibition (substrate: Myelin Basic Protein); set-up: species or system Escherichia coli; conditions: Not Active = under 50% inhibition at 10 µM
[4] = molecular target: T2, 5-hydroxytryptamine receptor 1A (Rattus norvegicus, UniProt P19327); type: cell membranes, Membrane; conditions: cho-k1; note: in other assays of this panel Not Active means under 50% inhibition at 10 µM
T2 sequence (P19327 whole entry): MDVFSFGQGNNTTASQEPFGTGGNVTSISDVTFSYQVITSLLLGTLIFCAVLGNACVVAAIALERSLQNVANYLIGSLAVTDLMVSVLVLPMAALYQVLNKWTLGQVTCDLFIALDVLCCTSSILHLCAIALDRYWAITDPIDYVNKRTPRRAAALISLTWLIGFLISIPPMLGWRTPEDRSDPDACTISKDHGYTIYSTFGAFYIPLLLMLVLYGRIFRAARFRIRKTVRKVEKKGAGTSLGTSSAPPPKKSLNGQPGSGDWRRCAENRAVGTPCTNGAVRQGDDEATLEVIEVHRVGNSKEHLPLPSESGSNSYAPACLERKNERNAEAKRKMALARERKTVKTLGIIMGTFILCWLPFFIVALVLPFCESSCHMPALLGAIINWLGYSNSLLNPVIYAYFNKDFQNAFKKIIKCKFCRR

Cytochrome P450 2C9 = Cytochrome P450 2C9 (Homo sapiens, UniProt P11712); conditions: bti-tn-5b1-4; note: in other assays of this panel Not Active means under 50% inhibition at 10 µM
Cytochrome P450 2C9, sequence (P11712 whole entry): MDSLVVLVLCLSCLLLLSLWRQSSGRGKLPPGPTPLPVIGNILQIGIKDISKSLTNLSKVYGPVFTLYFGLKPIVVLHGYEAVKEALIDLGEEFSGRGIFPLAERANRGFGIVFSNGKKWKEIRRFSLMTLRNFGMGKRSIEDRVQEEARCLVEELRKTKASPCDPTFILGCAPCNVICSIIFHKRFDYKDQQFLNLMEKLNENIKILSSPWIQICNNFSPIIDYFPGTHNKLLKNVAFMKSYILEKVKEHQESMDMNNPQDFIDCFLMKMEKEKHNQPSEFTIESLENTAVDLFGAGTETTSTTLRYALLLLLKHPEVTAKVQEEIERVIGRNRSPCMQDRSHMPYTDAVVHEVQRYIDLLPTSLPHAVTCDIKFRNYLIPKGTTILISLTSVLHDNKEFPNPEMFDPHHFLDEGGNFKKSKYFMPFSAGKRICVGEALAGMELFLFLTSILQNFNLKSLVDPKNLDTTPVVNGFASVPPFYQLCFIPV

Histamine H2 receptor, sequence (P25021 whole entry): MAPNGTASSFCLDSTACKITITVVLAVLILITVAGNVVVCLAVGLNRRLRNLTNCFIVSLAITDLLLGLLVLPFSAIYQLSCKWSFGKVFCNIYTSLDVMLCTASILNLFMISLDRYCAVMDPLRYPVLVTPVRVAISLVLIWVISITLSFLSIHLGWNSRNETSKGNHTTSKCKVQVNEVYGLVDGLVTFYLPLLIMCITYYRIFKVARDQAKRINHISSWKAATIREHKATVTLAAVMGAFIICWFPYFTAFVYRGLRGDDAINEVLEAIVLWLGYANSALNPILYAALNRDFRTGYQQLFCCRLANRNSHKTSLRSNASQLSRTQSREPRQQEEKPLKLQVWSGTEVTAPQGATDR
Mitogen-activated protein kinase 1, sequence (P28482 whole entry): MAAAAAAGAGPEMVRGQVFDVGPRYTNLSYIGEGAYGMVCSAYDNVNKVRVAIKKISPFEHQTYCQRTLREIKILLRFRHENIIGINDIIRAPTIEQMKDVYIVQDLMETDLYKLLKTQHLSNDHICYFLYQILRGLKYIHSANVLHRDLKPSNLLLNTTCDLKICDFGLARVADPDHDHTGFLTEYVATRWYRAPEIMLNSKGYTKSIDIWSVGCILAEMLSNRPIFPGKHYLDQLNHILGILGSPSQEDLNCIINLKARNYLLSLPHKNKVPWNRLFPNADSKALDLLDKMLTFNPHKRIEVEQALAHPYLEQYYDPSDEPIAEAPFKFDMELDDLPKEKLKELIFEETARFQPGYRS
Beta-3 adrenergic receptor, sequence (P13945 whole entry): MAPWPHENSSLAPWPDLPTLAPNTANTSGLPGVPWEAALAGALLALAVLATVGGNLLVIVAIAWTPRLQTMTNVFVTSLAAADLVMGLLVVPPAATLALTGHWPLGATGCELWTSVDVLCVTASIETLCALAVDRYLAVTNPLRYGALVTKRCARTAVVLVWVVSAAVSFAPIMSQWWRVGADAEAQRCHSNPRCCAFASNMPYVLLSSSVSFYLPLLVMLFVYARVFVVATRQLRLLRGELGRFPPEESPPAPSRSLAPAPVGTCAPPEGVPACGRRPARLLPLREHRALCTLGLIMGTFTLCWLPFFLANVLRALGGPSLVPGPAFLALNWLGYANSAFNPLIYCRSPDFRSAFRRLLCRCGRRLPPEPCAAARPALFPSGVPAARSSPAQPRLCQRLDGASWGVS
5-hydroxytryptamine receptor 2B, sequence (P41595 whole entry): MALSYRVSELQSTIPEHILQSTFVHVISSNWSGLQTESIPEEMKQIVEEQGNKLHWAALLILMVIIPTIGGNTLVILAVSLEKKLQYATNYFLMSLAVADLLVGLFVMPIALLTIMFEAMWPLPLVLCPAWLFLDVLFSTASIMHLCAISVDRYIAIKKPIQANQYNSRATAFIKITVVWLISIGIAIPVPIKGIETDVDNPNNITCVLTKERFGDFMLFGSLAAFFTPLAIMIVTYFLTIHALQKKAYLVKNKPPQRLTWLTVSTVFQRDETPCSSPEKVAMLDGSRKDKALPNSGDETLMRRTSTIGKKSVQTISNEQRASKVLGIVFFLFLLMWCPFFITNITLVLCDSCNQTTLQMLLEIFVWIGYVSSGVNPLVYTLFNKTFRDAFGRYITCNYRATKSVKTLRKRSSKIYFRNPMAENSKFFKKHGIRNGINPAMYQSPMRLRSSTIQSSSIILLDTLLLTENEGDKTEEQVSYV

CCC1=C[C@@H]2CN(C1)Cc1c([nH]c3ccccc13)[C@@](C(=O)OC)(c1cc3c(cc1OC)N(C)[C@H]1[C@@](O)(C(=O)OC)[C@H](OC(C)=O)[C@]4(CC)C=CCN5CC[C@]31[C@@H]54)C2 [VINORELBINE]
Not Active: IC50 [1] | IC50 [2] | IC50 (Thromboxane-A synthase) | IC50 (Histamine H2 receptor) | IC50 [3] | IC50 [4] | IC50 (Cytochrome P450 2C9) | Ki (Cytochrome P450 2C9)

CADMIUM DICHLORIDE
Not Active: IC50 [1] | Ki [1] | IC50 [2] | Ki [2] | IC50 (Thromboxane-A synthase) | Ki (Thromboxane-A synthase) | IC50 (Histamine H2 receptor) | Ki (Histamine H2 receptor) | IC50 [3] | Ki [3] | IC50 [4] | Ki [4] | IC50 (Cytochrome P450 2C9) | Ki (Cytochrome P450 2C9)
